Reference: publication PMC8026785, “The pharmacokinetics of [^18F]UCB-H revisited in the healthy non-human primate brain” (EJNMMI Research, 2021)
“And” between values parts separate entries of the source, which are not always exact repeats. Equal entries are not always repeated.

Molecular target: T1, SV2A (Macaca fascicularis, UniProt Q4R4X3)
T1 construct: The current study evaluates [^18F]UCB-H pharmacokinetics in healthy NHPs; from tissue; host or cells: brain of living healthy cynomolgus monkeys (in vivo PET)
Test: Brain PET kinetic modelling (1TCM, 2TCM, 2TCM-c, Logan), test-retest
Assay type: in vivo, cynomolgus monkeys (Macaca fascicularis)
Procedure: All four non-human primates (NHP) underwent a 2-h (2 h) test and retest PET scan; two NHP underwent an additional 4-h (4 h) retest PET scan. Three NHP underwent one 4-h (4 h) displacement PET scan. Arterial blood sampling was performed during test and retest scans with PET imaging spaced by at least 3 weeks between each scan. To this end, the femoral artery opposite to the saphenous vein used for radioligand injection was cannulated. For the 2-h (2 h) scans, we collected in total 28 blood samples of 1 mL: 16 samples during the first 5 min followed by […] every 5 min and […] every 10 min. For the 4 h scans, we collected an additional 6 samples every 20 min during the last two hours (34 samples in total). Larger samples (2 – 3 mL) were collected at 5, 15, 30, 60, 90, 120 min (2 h) and at 180, 240 min (4 h) for metabolite analysis. Displacement of [^18F]UCB-H was done by intravenous (IV) administration 90 min after [^18F]UCB-H injection of a bolus of 30 mg/kg LEV, or of 80 µg/kg (≈250 nmol/kg) or 5 mg/kg (≈15 µmol/kg) of cold [^19F]-UCB-H. Full experimental design of all NHP is outlined in Additional file 1: Table 1.
PET imaging was performed on the microPET FOCUS220 (Siemens) under standard anesthesia and monitoring procedures. Data acquisition started with the IV bolus injection of [^18F]UCB-H (32.9 ± 1.0 MBq/kg, 0.35 ± 0.07 µg/kg). Dynamic PET images were reconstructed using standard OSEM-2D algorithms while correcting for radioactive decay, scatter, attenuation and detectors inhomogeneity, which were measured prior to PET scanning using respectively ^57Co and ^68Ge external sources.
PET image analysis was performed using PMOD software version 3.8 (PMOD Technologies Ltd., Zurich, Suisse). After individual co-registration of PET-MR images, a cynomolgus atlas published by Ballanger and coworkers was normalized to PET images to extract time activity curves in different brain regions. Volumes of interest (VOI) were cerebral white matter (16.7 cm^3), striatum (0.24 cm^3), thalamus (0.89 cm^3), cerebellum (3.83 cm^3), frontal—(2.50 cm^3), parietal—(5.35 cm^3), and temporal (8.22 cm^3) cortex, and whole brain (72.2 cm^3) as a composite region of all regions in the atlas. [^18F]UCB-H pharmacokinetics were evaluated by analyzing the time activity curves of the test- and retest scans using 1- and 2-tissue compartment models (unconstrained and constrained with global K1/k2 coupled fit across all regions, further referred to as 2TCM and 2TCM-c), and Logan graphical analysis with a fixed t* at 60 min [33] using the arterial plasma input function corrected for radio-metabolites to derive the volume of distribution in each region. Percentage standard error (%SE) was estimated from the theoretical parameter covariance matrix. Only reliable estimates (%SE less than 25%) were included in the current analyses. For the three drug studies, percent displacement of the total activity in the whole brain was estimated relative to an average baseline constructed from the two 4 h baseline studies. Briefly, Standardized Uptake Value (SUV) time activity curves (TACs) were calculated for the two baseline and the three displacement studies. Then, each curve was normalized to the SUV at t = 90 min, corresponding to the timeframe immediately before the administration of the drugs in the displacement studies. Baseline curves were averaged and the percent displacement of total activity was calculated as (baseline-displacement)/baseline at a given time post drug administration (see “Results”).
Statistical analysis was performed using R software (version 3.3.1.). Plasma, intact parent fraction and time activity curves were statistically compared between subjects using a one-factor variance analysis. Absolute Test–Retest variability (aTRV) of PET quantification parameters was calculated as ABS(test—retest) / AVERAGE(test, retest). […]

[1] = Parietal Cortex, Retest, individual NHP
[2] = Parietal Cortex, Test, individual NHP
[3] = Striatum, Retest, individual NHP

T1 sequence (Q4R4X3 whole entry): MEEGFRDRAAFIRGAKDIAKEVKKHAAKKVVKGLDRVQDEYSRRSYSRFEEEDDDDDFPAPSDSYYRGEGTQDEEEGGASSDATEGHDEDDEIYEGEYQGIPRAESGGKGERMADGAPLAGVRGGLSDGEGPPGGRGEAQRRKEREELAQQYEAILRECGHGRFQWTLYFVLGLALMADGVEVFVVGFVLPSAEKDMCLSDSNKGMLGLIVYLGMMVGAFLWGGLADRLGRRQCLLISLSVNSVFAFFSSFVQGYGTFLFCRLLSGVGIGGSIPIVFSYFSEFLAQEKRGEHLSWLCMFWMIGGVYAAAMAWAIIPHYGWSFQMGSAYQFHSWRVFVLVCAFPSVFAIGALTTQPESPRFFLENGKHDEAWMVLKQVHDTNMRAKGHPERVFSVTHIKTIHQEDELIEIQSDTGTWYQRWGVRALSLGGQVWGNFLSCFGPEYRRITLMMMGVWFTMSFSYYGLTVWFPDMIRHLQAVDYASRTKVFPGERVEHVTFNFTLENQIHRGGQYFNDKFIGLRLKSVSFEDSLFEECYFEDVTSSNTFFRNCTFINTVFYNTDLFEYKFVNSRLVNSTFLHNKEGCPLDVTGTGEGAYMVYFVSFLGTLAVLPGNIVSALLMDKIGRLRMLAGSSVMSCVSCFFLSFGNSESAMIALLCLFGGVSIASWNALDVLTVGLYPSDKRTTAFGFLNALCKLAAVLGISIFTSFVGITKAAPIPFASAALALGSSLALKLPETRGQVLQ

VT (2TCM) (Frontal cortex, Retest, mean): 13.1 mL/cm^3
VT (2TCM-c) (Frontal cortex, Retest, mean): 14.7 mL/cm^3
VT (Logan (t* = 60)) (Frontal cortex, Retest, mean): 14.8 mL/cm^3
k3/k4 (BPND) (2TCM-c) (Frontal cortex, Retest, mean): 1.32
VT (1TCM) (Frontal cortex, Test, mean): 13.8 mL/cm^3
VT (2TCM) (Frontal cortex, Test, mean): 16.3 mL/cm^3
VT (2TCM-c) (Frontal cortex, Test, mean): 14.8 mL/cm^3
VT (Logan (t* = 60)) (Frontal cortex, Test, mean): 15.0 mL/cm^3
k3/k4 (BPND) (2TCM-c) (Frontal cortex, Test, mean): 1.25
ICC of VT, overall (Logan): ~ 0.6
aTRV of VT, overall (Logan): ~ 11% and ~ 12%
aTRV of VT (MA1, data not shown): ~ 11%
K1/k2 (2TCM) [1]: 13.02 ml/cm^3 and 14.99 ml/cm^3
VT (2TCM) [1]: 13.98 ml/cm^3 and 13.26 ml/cm^3
k3/k4 (2TCM-c) [1]: 2.02 and 1.04 and 0.78 and 0.83
VT (2TCM) [2]: 12.22 ml/cm^3 and 18.71 ml/cm^3
k3/k4 (2TCM) [2]: 0.59
k3/k4 (2TCM-c) [2]: 1.56 and 1.38 and 0.37 and 1.00
ICC of 2TCM-c VT (Parietal cortex): 0.38
ICC of Logan (t* = 60) VT (Parietal cortex): 0.75
aTRV of 2TCM-c VT (Parietal cortex): 19%
aTRV of Logan (t* = 60) VT (Parietal cortex): 12%
VT (1TCM) (Parietal cortex, Retest, mean): 14.8 mL/cm^3
VT (2TCM) (Parietal cortex, Retest, mean): 13.6 mL/cm^3
VT (2TCM-c) (Parietal cortex, Retest, mean): 16.1 mL/cm^3
VT (Logan (t* = 60)) (Parietal cortex, Retest, mean): 15.7 mL/cm^3
k3/k4 (BPND) (2TCM-c) (Parietal cortex, Retest, mean): 1.17
VT (1TCM) (Parietal cortex, Test, mean): 14.3 mL/cm^3
VT (2TCM) (Parietal cortex, Test, mean): 15.5 mL/cm^3
VT (2TCM-c) (Parietal cortex, Test, mean): 15.4 mL/cm^3
VT (Logan (t* = 60)) (Parietal cortex, Test, mean): 15.4 mL/cm^3
k3/k4 (BPND) (2TCM-c) (Parietal cortex, Test, mean): 1.08
ICC of Logan (t* = 60) VT (Striatum): 0.67
aTRV of 2TCM-c VT (Striatum): 12%
aTRV of Logan (t* = 60) VT (Striatum): 11%
K1/k2 (2TCM) [3]: 11.34 ml/cm^3 and 15.36 ml/cm^3
VT (2TCM) [3]: 13.09 ml/cm^3 and 15.01 ml/cm^3
k3/k4 (2TCM-c) [3]: 0.80 and 2.25 and 0.97 and 0.45
VT (1TCM) (Striatum, Retest, mean): 14.8 mL/cm^3
VT (2TCM) (Striatum, Retest, mean): 14.1 mL/cm^3
VT (2TCM-c) (Striatum, Retest, mean): 15.3 mL/cm^3
Structure (SMILES): O=C1C[C@H](c2cc(F)c(F)c(F)c2)CN1Cc1ccncc1[18F] [[^18F]UCB-H]
K1 (2TCM) [1]: 0.42 ml/cm^3 /min and 0.32 ml/cm^3 /min and 0.38 ml/cm^3 /min and 0.33 ml/cm^3 /min
K1 (2TCM-c) [1]: 0.44 ml/cm^3 /min and 0.33 ml/cm^3 /min and 0.38 ml/cm^3 /min and 0.34 ml/cm^3 /min
K1/k2 (2TCM-c) [1]: 4.64 ml/cm^3 and 9.07 ml/cm^3 and 10.70 ml/cm^3 and 7.25 ml/cm^3
VT (1TCM) [1]: 13.99 ml/cm^3 and 16.57 ml/cm^3 and 15.57 ml/cm^3 and 13.26 ml/cm^3
VT (2TCM-c) [1]: 14.02 ml/cm^3 and 18.28 ml/cm^3 and 18.66 ml/cm^3 and 13.26 ml/cm^3
VT (Logan) [1]: 13.75 ml/cm3 and 19.72 ml/cm3 and 15.91 ml/cm3 and 13.60 ml/cm3
K1 (2TCM) [2]: 0.22 ml/cm^3 /min and 0.40 ml/cm^3 /min and 0.41 ml/cm^3 /min and 0.18 ml/cm^3 /min
K1 (2TCM-c) [2]: 0.23 ml/cm^3 /min and 0.41 ml/cm^3 /min and 0.42 ml/cm^3 /min and 0.18 ml/cm^3 /min
K1/k2 (2TCM) [2]: 7.68 ml/cm^3 and 12.37 ml/cm^3 and 12.79 ml/cm^3 and 13.88 ml/cm^3
K1/k2 (2TCM-c) [2]: 4.35 ml/cm^3 and 8.22 ml/cm^3 and 10.99 ml/cm^3 and 7.86 ml/cm^3
VT (1TCM) [2]: 10.65 ml/cm^3 and 17.46 ml/cm^3 and 14.10 ml/cm^3 and 15.09 ml/cm^3
VT (2TCM-c) [2]: 11.12 ml/cm^3 and 17.78 ml/cm^3 and 15.03 ml/cm^3 and 17.47 ml/cm^3
VT (Logan) [2]: 11.83 ml/cm3 and 18.19 ml/cm3 and 15.28 ml/cm3 and 16.49 ml/cm3
K1 (2TCM) [3]: 0.41 ml/cm^3 /min and 0.54 ml/cm^3 /min and 0.44 ml/cm^3 /min and 0.46 ml/cm^3 /min
K1 (2TCM-c) [3]: 0.42 ml/cm^3 /min and 0.58 ml/cm^3 /min and 0.46 ml/cm^3 /min and 0.47 ml/cm^3 /min
K1/k2 (2TCM-c) [3]: 7.25 ml/cm^3 and 4.64 ml/cm^3 and 9.07 ml/cm^3 and 10.70 ml/cm^3
VT (1TCM) [3]: 13.04 ml/cm^3 and 14.96 ml/cm^3 and 15.52 ml/cm^3 and 15.75 ml/cm^3
VT (2TCM-c) [3]: 13.08 ml/cm^3 and 15.06 ml/cm^3 and 17.64 ml/cm^3 and 15.26 ml/cm^3
VT (Logan) [3]: 13.39 ml/cm3 and 14.93 ml/cm3 and 18.31 ml/cm3 and 16.14 ml/cm3
